In article PMC4965148 (PLoS ONE, 2016):
Values joined by “and” are separate entries in the source; they are usually repeats but may differ in a detail not shown here. Identical values can stand only once.

Tests used:
[1] = biological target: T1, HEK293/rat α7 nAChR cells (Rattus norvegicus, UniProt Q05941); test: Whole cell voltage clamp electrophysiology; format: cell-based; details: for Net Charge (Current Area) normalized to 300 µM ACh / Peak Current normalized to 3 mM ACh: individual cells; for mean ± SEM peak current Ymax: n = 5
T1 construct: expressed in transfected cells
Method: Whole-cell voltage clamp studies were conducted on HEK293/rat α7 or HEK293/human α7 nAChR cells. […] Atropine (1 μM) was included in the bathing solution. […] Cells were voltage clamped at a holding potential of -90 mV. Using the Dynaflow microfluidic perfusion system (Cellectricon; flow 26 μl/min) responses to a 300 ms application of ACh or α7 nAChR agonists were measured. Currents were filtered at 2 kHz and sampled at 10 kHz using an EPC-9 amplifier and HEKA Pulse/Patchmaster software. […] The peak current amplitude and net charge crossing the membrane (i.e. the area under the current response curve) induced by agonist application were measured using Clampfit (pClamp Suite) and normalized to the maximal response induced by ACh (3 mM ACh for peak current amplitude and 300 μM ACh for net charge).

C57Bl/6 mice = test: Mouse 24 h novel object recognition; format: in vivo
Method: The procedure followed a 3 day protocol. On day 1 (habituation) individual mice were habituated to the testing chamber (a white PVC box 48 cm long x 38 cm wide x 20 cm high with brown linoleum flooring) for 15 min then returned to their home cage. On day 2 (training) individual mice were returned to the testing chamber containing 2 identical objects and allowed to explore. The training session lasted for up to 15 min or until the mouse explored the objects for a total of 60 s. A maximal trial duration of 15 min was used to accommodate mice that are slower to initiate exploration. On day 3 (testing) individual mice were returned to the testing chamber 24 h later containing 1 familiar object encountered in the previous training session and one novel object. The testing session lasted up to 10 min or until the mouse explored the objects for a total of 60 s. The objects used for these studies were made of duplex legos approximately 3 inches high x 1 inch wide; one object was a multicolored rectangle and the second object was a solid color rectangle with a short arm attached. The location of the objects was counterbalanced between animals but was consistent within animals so that only the object itself was novel on the test session. The familiar object used during the test session was the same object used during training and all objects were thoroughly cleaned between sessions and between subjects. Animal behavior was video recorded during both training and testing and the amount of time spent exploring the objects determined using Cleversys software. Object exploration was only scored when the animal’s nose was within 1 cm of the object. […] The vehicle was chosen for sc dosing to ensure that BMS-933043 was dosed as a solution and not a suspension. […] For each subject the % discrimination index (DI) was calculated for both the training and test session as follows: %DI training = (time exploring object 1—time exploring object 2)/(total time exploring object 1 + object 2) X 100; %DI testing = (time exploring novel object—time exploring familiar object)/(total time exploring novel + familiar object) X 100.

[2] = system: MK-801 treated Sprague Dawley rats; test: Rat MK-801 set shift procedure; format: in vivo
Method: Studies followed the methods described in detail in [19] and are briefly summarized here. All rats were singly housed and food-restricted (15g/rat/day) for 7 days prior to initiation of training and for the duration of the study. At the time of testing, the average (± SEM) body weight for individual treatment groups ranged from 168 ± 4 g to 180 ± 6 g. Prior to the study several habituation sessions were conducted to familiarize subjects to the maze and task requirements. The maze consisted of 4 arms (40 cm long x 14 cm wide x 20 cm high) arranged in a ‘+’ configuration and the walls and floor of each arm were distinct and colored either black or white with either a rough or smooth texture (i.e. 1 arm with each of the following combinations: white/smooth, white/rough, black/smooth, black/rough). […] The arm opposite the blocked arm was designated as the ‘start arm’ and only 1 of the 2 remaining arms was baited with food pellets. The set shift procedure comprised 2 test sessions conducted over 2 consecutive days. On the first day (Set 1) rats were required to learn the association of either the color or texture of the maze arms with the location of a food reward. Animals were randomly assigned a correct exemplar within a given dimension as being predictive of reward with 50% of the rats assigned color and 50% assigned texture. Each rat was given a maximum of 120 trials on the maze which was rotated 90 degrees between successive trials so that the adjacent arms now became either the ‘start arm’ or the arm that was blocked. Animals were allowed to visit 1 of the 2 open arms and the trial recorded as correct if the arm with the pre-assigned exemplar was visited and the food reward retrieved. The inter-trial interval was 15 s. Rats were required to achieve a performance criterion of 8 consecutive entries into the rewarded arm at which point testing stopped and the animal was presumed to have learnt the association between the correct exemplar in the assigned dimension and food reward. On day 2 (Set 2) animals were again tested in the maze configured as described for Set 1 with the exception that the dimension predicting food reward was now switched (i.e. animals trained on color for Set 1 were switched to texture and visa versa). Correct performance was again defined as 8 consecutive entries into the rewarded arm with a maximal number of 80 trials allowed. All dosing was administered on day 2 prior to Set 2 testing.

Acetylcholinesterase = Acetylcholinesterase (Electrophorus electricus, UniProt O42275); test: Selectivity panel, enzyme; format: biochemical; details: Eel
Muscarinic M1 = Muscarinic M1 (Homo sapiens, UniProt P11229); test: Selectivity panel, binding; details: read-out: % inhibition @ 10 µM
[3] = system: neonatal PCP treated rats; test: Rat neonatal PCP mismatch negativity
Description: Adult male rats treated neonatally with PCP were implanted with epidural screw electrodes at the following co-ordinates under isoflurane anesthesia: 6 mm rostral and 1 mm off midline to the left from bregma; 5.5 mm rostral to interaural line and 1 mm off to the right from midline. Following recovery EEG recordings were collected from conscious rats housed in individual sound attenuated chambers (Med Associates, St Albans, VT) with the recording electrodes tethered through a low torque commutator system (Plastics One Inc, Roannoke, VA) to a differential amplifier (gain x1000; Warner Instruments, Hamden, CT). […] Baseline EEG was first recorded using Spike v5.19 or later software (CED, Cambridge, UK) to ensure electrical connectivity and an acceptable EEG signal. A simultaneous video was used to assess the general state of the animals during the recordings. […] Tones (70 dB) were delivered through a speaker mounted in the top center of the housing chamber and presented at 450 ms intervals. In each experimental session 700 standard and 100 deviant tones were presented. Data were analyzed using Signal v4.09 software (CED, Cambridge, UK). Artifact free trials were visually identified, corrected for baseline shift using the first 100 ms of the pre-stimulus baseline, 30 Hz low-pass filtered using a second order Butterworth digital filter and averaged to give evoked potential for each subject.

T1 sequence (Q05941 23-502): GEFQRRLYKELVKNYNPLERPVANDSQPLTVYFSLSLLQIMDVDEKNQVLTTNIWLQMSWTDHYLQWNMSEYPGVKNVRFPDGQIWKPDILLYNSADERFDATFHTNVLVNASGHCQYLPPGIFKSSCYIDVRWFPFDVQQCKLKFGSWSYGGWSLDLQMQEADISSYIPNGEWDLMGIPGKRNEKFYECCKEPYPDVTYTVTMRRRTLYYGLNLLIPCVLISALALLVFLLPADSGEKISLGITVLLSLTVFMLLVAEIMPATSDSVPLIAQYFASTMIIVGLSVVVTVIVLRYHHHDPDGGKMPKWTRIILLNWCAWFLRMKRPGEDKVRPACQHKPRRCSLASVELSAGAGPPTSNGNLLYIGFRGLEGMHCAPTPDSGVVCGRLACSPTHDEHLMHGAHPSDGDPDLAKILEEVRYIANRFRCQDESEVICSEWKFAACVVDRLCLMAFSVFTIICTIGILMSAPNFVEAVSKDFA
Sequence of Muscarinic M1 (P11229 whole entry): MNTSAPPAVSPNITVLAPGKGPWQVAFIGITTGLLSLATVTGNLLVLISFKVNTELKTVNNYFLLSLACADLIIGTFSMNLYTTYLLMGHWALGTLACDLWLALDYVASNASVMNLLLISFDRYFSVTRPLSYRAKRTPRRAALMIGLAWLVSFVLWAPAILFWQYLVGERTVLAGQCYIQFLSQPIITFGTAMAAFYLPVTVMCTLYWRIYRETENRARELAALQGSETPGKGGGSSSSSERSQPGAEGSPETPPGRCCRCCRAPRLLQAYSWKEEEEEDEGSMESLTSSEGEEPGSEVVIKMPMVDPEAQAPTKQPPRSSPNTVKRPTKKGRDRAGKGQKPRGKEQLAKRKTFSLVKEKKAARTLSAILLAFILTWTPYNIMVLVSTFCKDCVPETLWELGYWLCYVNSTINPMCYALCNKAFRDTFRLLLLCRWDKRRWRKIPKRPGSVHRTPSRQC
Sequence of Acetylcholinesterase (O42275 24-633): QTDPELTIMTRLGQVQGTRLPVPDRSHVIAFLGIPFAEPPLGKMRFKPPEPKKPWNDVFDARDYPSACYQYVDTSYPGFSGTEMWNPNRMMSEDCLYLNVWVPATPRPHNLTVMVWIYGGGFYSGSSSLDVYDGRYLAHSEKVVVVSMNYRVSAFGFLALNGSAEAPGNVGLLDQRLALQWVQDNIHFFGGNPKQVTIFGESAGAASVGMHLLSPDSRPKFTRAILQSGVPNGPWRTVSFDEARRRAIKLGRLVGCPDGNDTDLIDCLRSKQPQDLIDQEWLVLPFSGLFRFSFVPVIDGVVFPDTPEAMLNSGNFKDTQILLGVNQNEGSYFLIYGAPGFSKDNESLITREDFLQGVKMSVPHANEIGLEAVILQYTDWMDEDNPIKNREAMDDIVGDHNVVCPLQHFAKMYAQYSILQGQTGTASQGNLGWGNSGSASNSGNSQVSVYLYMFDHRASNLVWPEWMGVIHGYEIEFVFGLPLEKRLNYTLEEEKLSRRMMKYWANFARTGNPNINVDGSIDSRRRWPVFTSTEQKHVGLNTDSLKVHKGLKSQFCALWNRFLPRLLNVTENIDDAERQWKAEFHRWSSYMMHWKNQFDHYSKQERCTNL

c1cn(-c2cc(NC3=NC[C@@]4(CN5CCC4CC5)O3)ncn2)cn1 [BMS-933043, (2R)-N-(6-(1H-imidazol-1-yl)-4-pyrimidinyl)-4'H-spiro[4-azabicyclo[2.2.2]octane-2,5'-[1,3]oxazol]-2'-amine]
EC50 [1]: 140 ± 30 nM | Net Charge (Current Area) normalized to 300 µM ACh ([1]; 0.1 µM): 0.00864 and -0.014 and 0.05917 and 0.0877 | Peak Current normalized to 3 mM ACh ([1]; 0.1 µM): 0.01158 and 0.01083 and 0.01236 and 0.0131 | Net Charge (Current Area) normalized to 300 µM ACh ([1]; 0.3 µM): 0.4138 and 0.2853 and 0.4739 and 0.5256 | Peak Current normalized to 3 mM ACh ([1]; 0.3 µM): 0.04784 and 0.02829 and 0.03284 and 0.03669 | Net Charge (Current Area) normalized to 300 µM ACh ([1]; 1 µM): 0.7172 and 0.3555 and 0.6626 and 0.6549 | Peak Current normalized to 3 mM ACh ([1]; 1 µM): 0.07111 and 0.07356 and 0.0749 and 0.08082 | Net Charge (Current Area) normalized to 300 µM ACh ([1]; 3 µM): 0.7919 and 0.4794 and 0.6677 and 0.6569 | Peak Current normalized to 3 mM ACh ([1]; 3 µM): 0.1558 and 0.1519 and 0.1651 and 0.1365 | Net Charge (Current Area) normalized to 300 µM ACh ([1]; 10 µM): 0.8266 and 0.4637 and 0.7322 and 0.6673 | Peak Current normalized to 3 mM ACh ([1]; 10 µM): 0.2731 and 0.2904 and 0.2952 and 0.2153 | mean ± SEM peak current Ymax ([1]; BMS-933043 10 μM alone): 0.26 ± 0.03 | mean ± SEM peak current Ymax ([1]; BMS-933043 10 μM in the presence of 10 nM MLA): 0.02 ± 0.003 | Mean ± SEM Net Charge Ymax ([1]; Rat, normalized to 300 μM ACh): 0.67 ± 0.07 | Mean ± SEM Peak Current Ymaxobs @ 10 μM ([1]; Rat, normalized to 3 mM ACh): 0.27 ± 0.02 | total object exploration time in training or testing session (C57Bl/6 mice; mice): does not alter total object exploration time | effective dose range, 24 h novel object recognition (C57Bl/6 mice; sc, 30 min prior to training): 0.1 to 10 mg/kg | Number of trials to criteria Mean ± SEM ([2]; 0.3 mg/kg po / MK-801, 0.3-3 mg/kg study): 66.4 ± 3.2 | Number of trials to criteria Mean ± SEM ([2]; 1 mg/kg po / MK-801, 0.3-3 mg/kg study): 54.4 ± 4.8 | Number of trials to criteria Mean ± SEM ([2]; 3 mg/kg po / MK-801, 0.3-3 mg/kg study): 50.3 ± 4.3 | Number of trials to criteria Mean ± SEM ([2]; 3 mg/kg po / MK-801, 3-30 mg/kg study): 48.3 ± 5.8 | Number of trials to criteria Mean ± SEM ([2]; 10 mg/kg po / MK-801, 3-30 mg/kg study): 54.0 ± 3.2 | Number of trials to criteria Mean ± SEM ([2]; 30 mg/kg po / MK-801, 3-30 mg/kg study): 68.0 ± 4.7 | perseverative errors in MK-801-treated animals ([2]; po): decreased perseverative errors | IC50 (Acetylcholinesterase): > 60000 nM | inhibition at 10 µM (Muscarinic M1): 11% | deviance detection (MMN) ([3]; 0.3 mg/kg sc): just failing to achieve statistical significance | AUC (150-200 ms) of difference wave, Mean ([3]; Study 1, 0.01 mg/kg sc): -6.608e-005 | AUC (150-200 ms) of difference wave, Mean ([3]; Study 1, 0.1 mg/kg sc): -0.0001188 | AUC (150-200 ms) of difference wave, Mean ([3]; Study 2, 0.03 mg/kg sc): -0.0002362 | AUC (150-200 ms) of difference wave, Mean ([3]; Study 2, 0.1 mg/kg sc (so in the source)): -0.0001715 | AUC (150-200 ms) of difference wave, Mean ([3]; Study 3, 1 mg/kg sc): -0.000159 | AUC (150-200 ms) of difference wave, Mean ([3]; Study 3, 3 mg/kg sc): -0.0001341 | deviance detection (MMN) ([3]; doses of 0.03, 0.1, 1 and 3 mg/kg sc): significant deviance detection from a hypothetical zero | Active dose range, Neonatal PCP MMN ([3]; sc): 0.03–3.0 (sc) mg/kg
